Experimental data published in the kinase profiling compilation of Christmann-Franck et al. (2016).

Experiments:
Experiment in all cases: Caliper, Mobility shift assay off-chip
ROCK2 (human) = ROCK2 (human) (UniProt O75116)
ERBB4 (human) = ERBB4 (human) (UniProt Q15303)
TNK2 (human) = TNK2 (human) (UniProt Q07912)
WNK3 (human) = WNK3 (human) (UniProt Q9BYP7)
HIPK1 (human) = HIPK1 (human) (UniProt Q86Z02)
MAPK10 (human) = MAPK10 (human) (UniProt P53779)
TYRO3 (human) = TYRO3 (human) (UniProt Q06418)
[1] = tested on: EGFR (human), P00533 [L861Q]
[2] = tested on: MAPK14 (human), Q16539 [T106M]
[3] = tested on: PDGFRA (human), P16234 [D842V]
MAP3K9 (human) = MAP3K9 (human) (UniProt P80192)
CDK2 CCNE1 (human) = CDK2 CCNE1 (human) (UniProt P24864+P24941)
EPHA7 (human) = EPHA7 (human) (UniProt Q15375)
SGK3 (human) = SGK3 (human) (UniProt Q96BR1)
PLK2 (human) = PLK2 (human) (UniProt Q9NYY3)
TSSK1B (human) = TSSK1B (human) (UniProt Q9BXA7)
CDK7 CCNH MNAT1 (human) = CDK7 CCNH MNAT1 (human) (UniProt P50613+P51948+P51946)
MET (human) = MET (human) (UniProt P08581)
EPHA5 (human) = EPHA5 (human) (UniProt P54756)
DAPK3 (human) = DAPK3 (human) (UniProt O43293)
PHKG2 (human) = PHKG2 (human) (UniProt P15735)
MARK2 (human) = MARK2 (human) (UniProt Q7KZI7)
FGFR4 (human) = FGFR4 (human) (UniProt P22455)
MAP2K1 (human) = MAP2K1 (human) (UniProt Q02750)
LIMK1 (human) = LIMK1 (human) (UniProt P53667)
GSK3A (human) = GSK3A (human) (UniProt P49840)
STK33 (human) = STK33 (human) (UniProt Q9BYT3)
AKT2 (human) = AKT2 (human) (UniProt P31751)
MAPK9 (human) = MAPK9 (human) (UniProt P45984)
HCK (human) = HCK (human) (UniProt P08631)
CDK1 CCNB1 (human) = CDK1 CCNB1 (human) (UniProt P06493+P14635)
STK3 (human) = STK3 (human) (UniProt Q13188)
INSRR (human) = INSRR (human) (UniProt P14616)
FLT4 (human) = FLT4 (human) (UniProt P35916)
JAK2 JH1 JH2 (human) = JAK2 JH1 JH2 (human) (UniProt O60674)
PTK6 (human) = PTK6 (human) (UniProt Q13882)
DAPK1 (human) = DAPK1 (human) (UniProt P53355)
SRPK1 (human) = SRPK1 (human) (UniProt Q96SB4)
CDK5 CDK5R1 p25 (human) = CDK5 CDK5R1 p25 (human) (UniProt Q15078+Q00535)
ABL2 (human) = ABL2 (human) (UniProt P42684)

Chain of TNK2 (human) (Q07912 whole entry, looked up): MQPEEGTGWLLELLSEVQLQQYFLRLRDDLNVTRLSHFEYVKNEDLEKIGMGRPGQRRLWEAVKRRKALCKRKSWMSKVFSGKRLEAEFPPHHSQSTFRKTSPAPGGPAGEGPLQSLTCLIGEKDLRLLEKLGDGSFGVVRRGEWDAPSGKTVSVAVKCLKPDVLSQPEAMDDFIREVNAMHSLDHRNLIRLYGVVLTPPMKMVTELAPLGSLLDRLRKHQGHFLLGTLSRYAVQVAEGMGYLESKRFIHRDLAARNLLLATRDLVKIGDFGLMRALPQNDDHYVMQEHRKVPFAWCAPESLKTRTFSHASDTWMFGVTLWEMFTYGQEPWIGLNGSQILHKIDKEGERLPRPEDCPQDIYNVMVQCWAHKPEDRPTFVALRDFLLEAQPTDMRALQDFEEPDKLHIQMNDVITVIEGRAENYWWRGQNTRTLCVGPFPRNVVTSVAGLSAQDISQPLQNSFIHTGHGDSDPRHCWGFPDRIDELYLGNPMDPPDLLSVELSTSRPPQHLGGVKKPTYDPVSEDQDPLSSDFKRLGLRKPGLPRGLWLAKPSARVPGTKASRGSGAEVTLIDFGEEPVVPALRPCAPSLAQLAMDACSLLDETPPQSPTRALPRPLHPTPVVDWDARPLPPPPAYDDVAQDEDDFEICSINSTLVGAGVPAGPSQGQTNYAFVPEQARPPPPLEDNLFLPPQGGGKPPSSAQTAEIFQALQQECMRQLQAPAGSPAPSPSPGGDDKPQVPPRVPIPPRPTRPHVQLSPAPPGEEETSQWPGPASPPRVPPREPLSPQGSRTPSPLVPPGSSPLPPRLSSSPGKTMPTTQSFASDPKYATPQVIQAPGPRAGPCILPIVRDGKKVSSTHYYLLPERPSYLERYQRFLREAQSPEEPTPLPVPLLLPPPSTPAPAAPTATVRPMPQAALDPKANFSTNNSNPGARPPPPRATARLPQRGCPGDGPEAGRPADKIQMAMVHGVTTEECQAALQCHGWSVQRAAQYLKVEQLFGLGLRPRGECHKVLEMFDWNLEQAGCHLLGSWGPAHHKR
Chain of ERBB4 (human) (Q15303 whole entry, looked up): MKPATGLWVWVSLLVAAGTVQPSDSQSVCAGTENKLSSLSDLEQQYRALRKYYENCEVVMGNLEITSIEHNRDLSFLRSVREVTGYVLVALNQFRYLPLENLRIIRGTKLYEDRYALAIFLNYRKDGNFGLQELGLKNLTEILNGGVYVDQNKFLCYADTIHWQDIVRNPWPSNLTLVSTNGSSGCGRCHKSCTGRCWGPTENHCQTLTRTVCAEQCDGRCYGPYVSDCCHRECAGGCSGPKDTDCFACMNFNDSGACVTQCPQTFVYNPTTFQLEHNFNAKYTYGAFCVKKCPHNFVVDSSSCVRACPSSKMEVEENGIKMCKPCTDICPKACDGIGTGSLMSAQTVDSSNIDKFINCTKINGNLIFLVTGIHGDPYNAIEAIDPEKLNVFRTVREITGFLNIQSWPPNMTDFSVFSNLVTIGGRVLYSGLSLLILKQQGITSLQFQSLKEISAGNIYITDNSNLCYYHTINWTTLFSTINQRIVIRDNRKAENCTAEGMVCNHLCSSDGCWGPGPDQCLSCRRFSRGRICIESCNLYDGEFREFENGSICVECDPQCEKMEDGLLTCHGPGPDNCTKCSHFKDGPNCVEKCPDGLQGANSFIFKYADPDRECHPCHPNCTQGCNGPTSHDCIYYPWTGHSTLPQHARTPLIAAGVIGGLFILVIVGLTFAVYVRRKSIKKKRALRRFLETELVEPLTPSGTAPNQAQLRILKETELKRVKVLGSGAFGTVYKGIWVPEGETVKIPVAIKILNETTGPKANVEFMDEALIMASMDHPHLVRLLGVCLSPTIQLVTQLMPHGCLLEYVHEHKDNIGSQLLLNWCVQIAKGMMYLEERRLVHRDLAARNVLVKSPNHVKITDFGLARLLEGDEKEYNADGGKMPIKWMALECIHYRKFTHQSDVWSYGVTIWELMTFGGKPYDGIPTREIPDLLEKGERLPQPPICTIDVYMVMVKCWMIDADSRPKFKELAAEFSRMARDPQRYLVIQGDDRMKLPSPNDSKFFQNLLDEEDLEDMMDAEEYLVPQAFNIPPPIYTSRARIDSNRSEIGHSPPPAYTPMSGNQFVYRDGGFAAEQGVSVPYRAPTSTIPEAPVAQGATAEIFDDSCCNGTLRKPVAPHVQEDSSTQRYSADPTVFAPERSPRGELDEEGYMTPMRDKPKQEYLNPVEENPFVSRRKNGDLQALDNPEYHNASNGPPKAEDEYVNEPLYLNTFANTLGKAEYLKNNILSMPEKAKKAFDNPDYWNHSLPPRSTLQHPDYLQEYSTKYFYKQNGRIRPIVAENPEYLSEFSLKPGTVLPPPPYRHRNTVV
Chain of STK3 (human) (Q13188 whole entry, looked up): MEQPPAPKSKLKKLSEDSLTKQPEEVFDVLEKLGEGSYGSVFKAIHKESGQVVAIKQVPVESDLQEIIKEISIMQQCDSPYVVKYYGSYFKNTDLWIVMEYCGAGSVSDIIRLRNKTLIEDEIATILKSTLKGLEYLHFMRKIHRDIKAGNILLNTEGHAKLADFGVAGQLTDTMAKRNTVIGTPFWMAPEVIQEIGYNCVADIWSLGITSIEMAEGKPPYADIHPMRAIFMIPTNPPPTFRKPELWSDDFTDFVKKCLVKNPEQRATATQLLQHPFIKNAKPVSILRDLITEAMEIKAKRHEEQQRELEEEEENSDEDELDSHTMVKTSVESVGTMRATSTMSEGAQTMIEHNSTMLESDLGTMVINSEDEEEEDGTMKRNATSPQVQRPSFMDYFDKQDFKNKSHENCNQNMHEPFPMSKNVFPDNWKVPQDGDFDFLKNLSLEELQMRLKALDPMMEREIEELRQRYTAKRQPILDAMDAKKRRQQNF
Chain of MAPK14 (human), Q16539 [T106M] (Q16539 whole entry T106M, looked up): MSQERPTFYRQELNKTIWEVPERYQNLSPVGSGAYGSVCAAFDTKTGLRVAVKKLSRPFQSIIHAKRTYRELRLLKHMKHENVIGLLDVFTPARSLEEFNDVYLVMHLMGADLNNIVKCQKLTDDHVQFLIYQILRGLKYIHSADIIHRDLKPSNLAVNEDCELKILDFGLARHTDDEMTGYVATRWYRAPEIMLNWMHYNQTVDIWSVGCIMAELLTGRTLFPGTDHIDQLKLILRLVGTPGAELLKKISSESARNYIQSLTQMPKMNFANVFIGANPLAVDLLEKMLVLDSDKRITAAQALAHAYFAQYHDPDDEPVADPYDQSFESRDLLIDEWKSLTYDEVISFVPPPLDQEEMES
Chain of ROCK2 (human) (O75116 whole entry, looked up): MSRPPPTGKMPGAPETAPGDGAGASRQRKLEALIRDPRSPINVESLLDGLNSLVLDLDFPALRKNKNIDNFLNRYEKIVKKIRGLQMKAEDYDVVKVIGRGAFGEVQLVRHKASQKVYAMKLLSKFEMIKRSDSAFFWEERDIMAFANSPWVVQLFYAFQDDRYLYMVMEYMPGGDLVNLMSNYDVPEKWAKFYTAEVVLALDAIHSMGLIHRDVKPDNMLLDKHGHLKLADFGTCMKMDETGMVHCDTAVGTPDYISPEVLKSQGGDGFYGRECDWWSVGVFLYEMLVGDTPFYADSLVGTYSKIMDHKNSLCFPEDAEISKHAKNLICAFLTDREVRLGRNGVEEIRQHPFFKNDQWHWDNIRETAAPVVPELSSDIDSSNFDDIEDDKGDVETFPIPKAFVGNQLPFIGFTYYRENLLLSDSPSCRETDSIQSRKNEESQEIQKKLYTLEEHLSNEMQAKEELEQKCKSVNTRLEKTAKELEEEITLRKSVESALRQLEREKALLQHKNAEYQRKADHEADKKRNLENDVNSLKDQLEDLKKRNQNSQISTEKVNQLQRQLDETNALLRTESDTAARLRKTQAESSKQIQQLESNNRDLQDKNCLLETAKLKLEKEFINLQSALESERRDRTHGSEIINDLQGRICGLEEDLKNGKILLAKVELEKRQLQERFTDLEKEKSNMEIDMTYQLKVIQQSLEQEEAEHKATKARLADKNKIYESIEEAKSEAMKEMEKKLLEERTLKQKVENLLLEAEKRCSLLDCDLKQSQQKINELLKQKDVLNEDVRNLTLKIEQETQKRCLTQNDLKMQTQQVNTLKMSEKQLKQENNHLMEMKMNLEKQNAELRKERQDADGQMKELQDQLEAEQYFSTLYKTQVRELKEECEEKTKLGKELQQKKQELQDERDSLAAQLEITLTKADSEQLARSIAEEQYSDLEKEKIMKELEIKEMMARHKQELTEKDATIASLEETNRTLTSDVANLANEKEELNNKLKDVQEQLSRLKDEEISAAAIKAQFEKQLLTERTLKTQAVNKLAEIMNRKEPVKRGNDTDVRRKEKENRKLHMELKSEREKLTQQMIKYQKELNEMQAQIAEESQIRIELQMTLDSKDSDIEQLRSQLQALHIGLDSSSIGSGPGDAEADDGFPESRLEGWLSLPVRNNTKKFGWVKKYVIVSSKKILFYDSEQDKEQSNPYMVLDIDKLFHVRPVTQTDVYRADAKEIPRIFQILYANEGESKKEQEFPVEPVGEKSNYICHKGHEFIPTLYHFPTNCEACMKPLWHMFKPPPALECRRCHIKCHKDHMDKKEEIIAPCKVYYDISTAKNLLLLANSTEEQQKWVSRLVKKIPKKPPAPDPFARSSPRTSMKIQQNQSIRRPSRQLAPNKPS
Chain of PTK6 (human) (Q13882 whole entry, looked up): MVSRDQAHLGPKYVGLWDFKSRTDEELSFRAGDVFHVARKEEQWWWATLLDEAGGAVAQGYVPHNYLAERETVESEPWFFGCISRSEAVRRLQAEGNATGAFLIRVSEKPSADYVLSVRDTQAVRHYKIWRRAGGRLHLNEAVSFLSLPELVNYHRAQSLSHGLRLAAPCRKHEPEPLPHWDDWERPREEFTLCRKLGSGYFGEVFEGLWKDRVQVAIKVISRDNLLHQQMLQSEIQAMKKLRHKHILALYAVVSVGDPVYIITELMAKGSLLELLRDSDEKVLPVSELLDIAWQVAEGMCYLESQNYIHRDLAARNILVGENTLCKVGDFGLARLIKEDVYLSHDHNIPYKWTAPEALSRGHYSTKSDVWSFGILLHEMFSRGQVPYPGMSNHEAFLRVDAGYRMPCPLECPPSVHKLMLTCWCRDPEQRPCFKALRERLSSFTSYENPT

## O=C(N[C@@H](COc1ccc2[nH]c(=O)[nH]c2c1)c1ccccc1)c1cccn(Cc2ccc(F)c(F)c2)c1=O
ROCK2 (human); compound 10.0 µM
  residual activity: 109%
ERBB4 (human); compound 10.0 µM
  residual activity: 120%
TNK2 (human); compound 10.0 µM
  residual activity: 101%
WNK3 (human); compound 10.0 µM
  residual activity: 99%
HIPK1 (human); compound 10.0 µM
  residual activity: 99%
MAPK10 (human); compound 10.0 µM
  residual activity: 105%
TYRO3 (human); compound 10.0 µM
  residual activity: 118%
[1]; compound 10.0 µM
  residual activity: 96%
[2]; compound 10.0 µM
  residual activity: 113%
[3]; compound 10.0 µM
  residual activity: 108%
MAP3K9 (human); compound 10.0 µM
  residual activity: 91%
CDK2 CCNE1 (human); compound 10.0 µM
  residual activity: 104%
EPHA7 (human); compound 10.0 µM
  residual activity: 103%
SGK3 (human); compound 10.0 µM
  residual activity: 117%
PLK2 (human); compound 10.0 µM
  residual activity: 97%
TSSK1B (human); compound 10.0 µM
  residual activity: 100%
CDK7 CCNH MNAT1 (human); compound 10.0 µM
  residual activity: 95%
MET (human); compound 10.0 µM
  residual activity: 95%
EPHA5 (human); compound 10.0 µM
  residual activity: 99%
DAPK3 (human); compound 10.0 µM
  residual activity: 121%
PHKG2 (human); compound 10.0 µM
  residual activity: 101%
MARK2 (human); compound 10.0 µM
  residual activity: 96%
FGFR4 (human); compound 10.0 µM
  residual activity: 108%
MAP2K1 (human); compound 10.0 µM
  residual activity: 102%
LIMK1 (human); compound 10.0 µM
  residual activity: 97%
GSK3A (human); compound 10.0 µM
  residual activity: 102%
STK33 (human); compound 10.0 µM
  residual activity: 104%
AKT2 (human); compound 10.0 µM
  residual activity: 103%
MAPK9 (human); compound 10.0 µM
  residual activity: 100%
HCK (human); compound 10.0 µM
  residual activity: 110%
CDK1 CCNB1 (human); compound 10.0 µM
  residual activity: 111%
STK3 (human); compound 10.0 µM
  residual activity: 101%
INSRR (human); compound 10.0 µM
  residual activity: 108%
FLT4 (human); compound 10.0 µM
  residual activity: 109%
JAK2 JH1 JH2 (human); compound 10.0 µM
  residual activity: 106%
PTK6 (human); compound 10.0 µM
  residual activity: 116%
DAPK1 (human); compound 10.0 µM
  residual activity: 113%
SRPK1 (human); compound 10.0 µM
  residual activity: 104%
CDK5 CDK5R1 p25 (human); compound 10.0 µM
  residual activity: 111%
ABL2 (human); compound 10.0 µM
  residual activity: 112%

## C[C@@H](Nc1nc2c(C#CC3CC3)c[nH]c(=O)c2c2cc(-c3cn[nH]c3)ccc12)C(C)(C)C
ROCK2 (human); compound 1.0 µM
  residual activity: 29%
ERBB4 (human); compound 1.0 µM
  residual activity: 102%
TNK2 (human); compound 1.0 µM
  residual activity: 32%
WNK3 (human); compound 1.0 µM
  residual activity: 73%
HIPK1 (human); compound 1.0 µM
  residual activity: 109%
MAPK10 (human); compound 1.0 µM
  residual activity: 71%
TYRO3 (human); compound 1.0 µM
  residual activity: 94%
[1]; compound 1.0 µM
  residual activity: 68%
[2]; compound 1.0 µM
  residual activity: 103%
[3]; compound 1.0 µM
  residual activity: 1%
MAP3K9 (human); compound 1.0 µM
  residual activity: 1%
CDK2 CCNE1 (human); compound 1.0 µM
  residual activity: 116%
EPHA7 (human); compound 1.0 µM
  residual activity: 102%
SGK3 (human); compound 1.0 µM
  residual activity: 104%
PLK2 (human); compound 1.0 µM
  residual activity: 72%
TSSK1B (human); compound 1.0 µM
  residual activity: 75%
CDK7 CCNH MNAT1 (human); compound 1.0 µM
  residual activity: 102%
MET (human); compound 1.0 µM
  residual activity: 96%
EPHA5 (human); compound 1.0 µM
  residual activity: 109%
DAPK3 (human); compound 1.0 µM
  residual activity: 57%
PHKG2 (human); compound 1.0 µM
  residual activity: 76%
MARK2 (human); compound 1.0 µM
  residual activity: 87%
FGFR4 (human); compound 1.0 µM
  residual activity: 105%
MAP2K1 (human); compound 1.0 µM
  residual activity: 96%
LIMK1 (human); compound 1.0 µM
  residual activity: 67%
GSK3A (human); compound 1.0 µM
  residual activity: 107%
STK33 (human); compound 1.0 µM
  residual activity: 41%
AKT2 (human); compound 1.0 µM
  residual activity: 90%
MAPK9 (human); compound 1.0 µM
  residual activity: 116%
HCK (human); compound 1.0 µM
  residual activity: 31%
CDK1 CCNB1 (human); compound 1.0 µM
  residual activity: 100%
STK3 (human); compound 1.0 µM
  residual activity: 60%
INSRR (human); compound 1.0 µM
  residual activity: 104%
FLT4 (human); compound 1.0 µM
  residual activity: 2%
JAK2 JH1 JH2 (human); compound 1.0 µM
  residual activity: 106%
PTK6 (human); compound 1.0 µM
  residual activity: 105%
DAPK1 (human); compound 1.0 µM
  residual activity: 82%
SRPK1 (human); compound 1.0 µM
  residual activity: 104%
CDK5 CDK5R1 p25 (human); compound 1.0 µM
  residual activity: 104%
ABL2 (human); compound 1.0 µM
  residual activity: 104%
